Blank lines part the entries; values can stand above or below the compound they belong to.
Legend:
[1] = tested on: prostate cancer (PC-3); test: MTT antiproliferative assay, PC-3; details: for Growth inhibition (%) PC-3: 100 μM, MTT; for inhibition at 100 µM: read-out: Growth inhibition (%) PC-3
Method: (§1) Preliminary screening against the cancer cell lines was performed, using doxorubicin as a reference drug at doses of 100 μM.
(§2) In vitro cytotoxicity was carried out using MTT assay protocol[63] as described in Supplementary data.
(§3) proliferative activity was assessed quantitatively as follows;
(§4) Human cancer cell lines were dropped in 96-well plates at a density of 3-8 × 10^3 cells/well.
(§5) growth medium was exchanged with 0.1 ml of fresh medium containing graded concentrations of the test compounds to be or equal DMSO and incubated for two days. Then 10 μl MTT solution (0.5 mg/ml) was added to each well, and the cells were incubated for additional 4 h. The crystals of MTT-formazan were dissolved in 100 μl of DMSO; the absorbance of each well was measured at 490 nm using an automatic ELISA reader system (TECAN, CHE). The IC50 values were calculated using the nonlinear regression fitting models (Graph Pad, Prism Version 5). The data represented the mean of three independent experiments in triplicate and were expressed as means
(§6) The results were expressed as growth inhibitory concentration (IC50) values and

[2] = tested on: lung cancer (A-549); test: MTT antiproliferative assay, A-549; details: for Growth inhibition (%) A549: 100 μM, MTT; for inhibition at 100 µM: A549, read-out: Growth inhibition (%) A549
Method: as §1, §2, §3, §4, §5, §6

[3] = tested on: breast cancer (MCF-7); test: MTT antiproliferative assay, MCF-7; details: for Growth inhibition (%) MCF-7: 100 μM, MTT; for inhibition at 100 µM: MCF7, read-out: Growth inhibition (%) MCF-7
Method: as §1, §2, §3, §4, §5, §6

[4] = tested on: colon cancer (HCT-116); test: MTT antiproliferative assay, HCT-116; details: for Growth inhibition (%) HCT-116: 100 μM; for inhibition at 100 µM: HCT-116, read-out: Growth inhibition (%) HCT-116
Method: as §1, §2, §3, §4, §5, §6

[5] = tested on: caspase-3 in PC-3 cells; test: Caspase-3 determination (ELISA); assay type: cell-based, human; details: 24 h treatment, 8a at 3.04 µM, control 84.24, mean ± SEM

Compound: 3-Amino-6–(4-methoxyphenyl)-8-(p-tolyl)-2,3-dihydropyrido[2,3-d][1, 2, 4] triazolo[4,3-a]pyrimidin-5(1H)-one [Compound 11c]
Growth inhibition (%) PC-3 [1]: 28%
Growth inhibition (%) A549 [2]: 26%
Growth inhibition (%) MCF-7 [3]: 23%
Growth inhibition (%) HCT-116 ([4]; MTT): 3%

Compound: 3-Amino-8-(p-Tolyl)-6–(3,4,5-trimethoxyphenyl)-2,3-dihydropyrido[2,3-d][1, 2, 4]triazolo[4,3-a]pyrimidin-5(1H)-one [Compound 11e]
Growth inhibition (%) PC-3 [1]: 22%
Growth inhibition (%) A549 [2]: 30%
Growth inhibition (%) MCF-7 [3]: 23%
Growth inhibition (%) HCT-116 ([4]; MTT): 6%

Compound: 3-Amino-8–(4-chlorophenyl)-6-(p-tolyl)-2,3-dihydropyrido[2,3-d][1, 2, 4] triazolo[4,3-a]pyrimidin-5(1H)-one [Compound 11b]
Growth inhibition (%) PC-3 [1]: 43%
Growth inhibition (%) A549 [2]: 28%
Growth inhibition (%) MCF-7 [3]: 29%
Growth inhibition (%) HCT-116 ([4]; MTT): 15%

Compound: 3-Amino-8–(4-chlorophenyl)-6–(2,4-dichlorophenyl)-10,10a-dihydropyrido [2,3-d][1, 2, 4]triazolo[4,3-a]pyrimidin-5(1H)-one [Compound 11a]
Growth inhibition (%) PC-3 [1]: 30%
Growth inhibition (%) A549 [2]: 2%
Growth inhibition (%) MCF-7 [3]: 7%
Growth inhibition (%) HCT-116 ([4]; MTT): 9%

Compound: 3-Amino-8–(4-chlorophenyl)-6–(3,4,5-trimethoxyphenyl) -2,3dihydropyrido[2,3-d][1, 2, 4]triazolo[4,3-a] pyrimidin-5(1H)-one [Compound 11d]
Growth inhibition (%) PC-3 [1]: 20%
Growth inhibition (%) A549 [2]: 5%
Growth inhibition (%) MCF-7 [3]: 37%
Growth inhibition (%) HCT-116 ([4]; MTT): 3%

Compound: O=c1[nH]c(=S)[nH]c2nc(-c3ccc(Cl)cc3)cc(-c3ccc(Cl)cc3Cl)c12 [Compound 7a, 7–(4-Chlorophenyl)-5–(2,4-dichlorophenyl)-2-thioxo-2,3-dihydropyrido [2,3-d]pyrimidin-4(1H)-one]
melting point: 318 to 320 °C
inhibition at 100 µM ([1]; Homo sapiens): 12%
inhibition at 100 µM ([2]; Homo sapiens): 14%
inhibition at 100 µM ([3]; Homo sapiens): 34%
inhibition at 100 µM ([4]; Homo sapiens): 18%

Compound: COc1cc(-c2cc(-c3ccc(Cl)cc3)nc3nc4[nH]c5ccccc5c(=O)n4c(=O)c23)cc(OC)c1OC [Compound 8c, 2–(4-Chlorophenyl)-4–(3,4,5-trimethoxyphenyl)-5H-pyrido [2',3':4,5] pyrimido[2,1-b]quinazoline-5,7(12H)-dione]
melting point: < 300 °C
inhibition at 100 µM ([1]; Homo sapiens): 17%
inhibition at 100 µM ([2]; Homo sapiens): 8%
inhibition at 100 µM ([3]; Homo sapiens): 21%
inhibition at 100 µM ([4]; Homo sapiens): 9%

Compound: Cc1ccc(-c2cc(-c3ccc(Cl)cc3)nc3nc4[nH][nH]c(=O)n4c(=O)c23)cc1 [Compound 10a, 8-(4-Chlorophenyl)-6-(p-tolyl)-1,2-dihydropyrido[2,3-d][1,2, 4]triazolo[4,3-a]pyrimidine-3,5-dione]
melting point: 347 to 349 °C
inhibition at 100 µM ([1]; Homo sapiens): 29%
inhibition at 100 µM ([2]; Homo sapiens): 17%
inhibition at 100 µM ([3]; Homo sapiens): 41%
inhibition at 100 µM ([4]; Homo sapiens): 21%

Compound: COc1ccc(-c2cc(-c3ccc(C)cc3)nc3nc4[nH][nH]c(=O)n4c(=O)c23)cc1 [Compound 10b, 6-(4-Methoxyphenyl)-8-(p-tolyl)-1,2-dihydropyrido[2,3-d][1,2, 4]triazolo[4,3-a]pyrimidine-3,5-dione]
melting point: 366 to 368 °C
inhibition at 100 µM ([1]; Homo sapiens): 15%
inhibition at 100 µM ([2]; Homo sapiens): 7%
inhibition at 100 µM ([3]; Homo sapiens): 4%
inhibition at 100 µM ([4]; Homo sapiens): 14%

Compound: COc1cc(-c2cc(-c3ccc(Cl)cc3)nc3nc4[nH][nH]c(=O)n4c(=O)c23)cc(OC)c1OC [Compound 10c, 8-(4-Chlorophenyl)-6–(3,4,5-trimethoxyphenyl)-1,2-dihydropyrido[2,3-d][1,2, 4]triazolo[4,3-a]pyrimidine-3,5-dione]
melting point: 367 to 369 °C
inhibition at 100 µM ([1]; Homo sapiens): 52%
inhibition at 100 µM ([2]; Homo sapiens): 9%
inhibition at 100 µM ([3]; Homo sapiens): 8%
inhibition at 100 µM ([4]; Homo sapiens): 23%

Compound: COc1cc(-c2cc(-c3ccc(C)cc3)nc3nc4[nH][nH]c(=O)n4c(=O)c23)cc(OC)c1OC [Compound 10d, 8-(p-Tolyl)-6–(3,4,5-trimethoxyphenyl)-1,2-dihydropyrido[2,3-d][1,2, 4]triazolo [4,3-a]pyrimidine-3,5-dione]
melting point: 391 to 393 °C
inhibition at 100 µM ([1]; Homo sapiens): 8%
inhibition at 100 µM ([2]; Homo sapiens): 2%
inhibition at 100 µM ([3]; Homo sapiens): 5%
inhibition at 100 µM ([4]; Homo sapiens): 5%

Compound: COc1cccc2c1C(=O)c1c(O)c3c(c(O)c1C2=O)C[C@@](O)(C(=O)CO)C[C@@H]3O[C@H]1C[C@H](N)[C@H](O)[C@H](C)O1 [Doxorubicin, reference compound]
inhibition at 100 µM ([1]; Homo sapiens): 100%
inhibition at 100 µM ([2]; Homo sapiens): 100%
inhibition at 100 µM ([3]; Homo sapiens): 100%
inhibition at 100 µM ([4]; Homo sapiens): 100%

Compound: C#Cc1cccc(Nc2ncnc3cc(OCCOC)c(OCCOC)cc23)c1 [Erlotinib, reference compound]
IC50 ([1]; Homo sapiens, read-out: IC50 PC-3): 11.1 ± 1.07 µM
IC50 ([2]; Homo sapiens, A549, read-out: IC50 A-549): 6.53 ± 0.82 µM
IC50 ([3]; Homo sapiens, MCF7, read-out: IC50 MCF-7): 4.21 ± 0.62 µM

Compound: CN[C@@H]1C[C@H]2O[C@@](C)([C@@H]1OC)n1c3ccccc3c3c4c(c5c6ccccc6n2c5c31)C(=O)NC4 [Staurosporine, reference compound]
Caspase-3 level [5]: 413.1 ± 11.66 pg/mL
Caspase-3 level ([5]; listed as staurosporine): 413.1 pg/mL

More lines, main results first:

melting point: 315 to 317 °C
Compound: Cc1ccc(-c2cc(-c3ccc(Cl)cc3)nc3nc4[nH]nc(-c5ccccc5)n4c(=O)c23)cc1 [Compound 12a, 8–(4-Chlorophenyl)-3-phenyl-6-(p-tolyl)pyrido[2,3-d][1,2, 4]triazolo[4,3-a]pyrimidin-5(1H)-one]
inhibition at 100 µM ([1]; Homo sapiens): 28%
inhibition at 100 µM ([2]; Homo sapiens): 41%
inhibition at 100 µM ([3]; Homo sapiens): 45%
inhibition at 100 µM ([4]; Homo sapiens): 35%

melting point: 325 to 327 °C
IC50 ([4]; Homo sapiens, HCT-116, read-out: IC50 HCT-116): 86.3 ± 2.2 µM
Compound: COc1ccc(-c2cc(-c3ccc(C)cc3)nc3nc4[nH]nc(-c5ccccc5)n4c(=O)c23)cc1 [Compound 12b, 6-(4-Methoxyphenyl)-3-phenyl-8-(p-tolyl)pyrido[2,3-d][1,2, 4]triazolo[4,3-a]pyrimidin-5(1H)-one]
inhibition at 100 µM ([1]; Homo sapiens): 36%
inhibition at 100 µM ([2]; Homo sapiens): 33%
inhibition at 100 µM ([3]; Homo sapiens): 54%
inhibition at 100 µM ([4]; Homo sapiens): 56%
Cytotoxic activity against HCT-116 ([4]; MTT): mild cytotoxic activity

melting point: 313 to 315 °C
Compound: COc1cc(-c2cc(-c3ccc(Cl)cc3)nc3nc4[nH]nc(-c5ccccc5)n4c(=O)c23)cc(OC)c1OC [Compound 12c, 8-(4-Chlorophenyl)-3-phenyl-6–(3,4,5-trimethoxyphenyl)pyrido[2,3-d][1,2, 4]triazolo[4,3-a]pyrimidin-5(1H)-one]
inhibition at 100 µM ([1]; Homo sapiens): 30%
inhibition at 100 µM ([2]; Homo sapiens): 22%
inhibition at 100 µM ([3]; Homo sapiens): 55%
inhibition at 100 µM ([4]; Homo sapiens): 33%

melting point: 322 to 324 °C
Compound: COc1cc(-c2cc(-c3ccc(C)cc3)nc3nc4[nH]nc(-c5ccccc5)n4c(=O)c23)cc(OC)c1OC [Compound 12d, 3-Phenyl-8-(p-tolyl)-6–(3,4,5-trimethoxyphenyl)pyrido[2,3-d][1,2, 4]triazolo [4,3-a]pyrimidin-5(1H)-one]
inhibition at 100 µM ([1]; Homo sapiens): 14%
inhibition at 100 µM ([2]; Homo sapiens): 4%
inhibition at 100 µM ([3]; Homo sapiens): 15%
inhibition at 100 µM ([4]; Homo sapiens): 5%

— publication PMC9291687
